Where only a bound is given, the exact number is not on record here.

Data set [1] has as its system patients undergoing partial colectomy or simple or radical hysterectomy surgical procedures. The experiment in a line: Phase II clinical study versus placebo in patients after abdominal surgery (post-surgical ileus). Type of data set: in vivo, humans. The protocol: A 78 patient Phase II clinical study was conducted which compared two doses (2 mg and 12 mg) of the compound of formula (II) versus placebo in patients undergoing partial colectomy or simple or radical hysterectomy surgical procedures. The results of this study are set forth in the following Tables 1 to 4 and are depicted graphically in FIGS. 1 to 5.
The time to first flatus was reduced by 15 hours; all other measures were reduced by 24 hours or more. […] In particular, none of the patients receiving the higher dose of the compound of formula (II) experienced post-surgical vomiting compared to 23% in the placebo control group (P<0.03). Twenty seven percent of the patients receiving the higher dose of compound (II) experienced clinically relevant post- surgical nausea compared to 63% of the placebo control group (P=0.003).

The nature of another data set: Solubility in water. Type of data set: physicochemical. To be noted: except at low or high pH conditions. The text has this: Zwitterionic character may be inherent to the compound, and may impart desirable properties such as poor systemic absorption and sustained local affect on the gut following oral administration.
Another data set deals with mu opioid receptors (Homo sapiens, UniProt P35372). Particulars: opioid receptor binding assays; cited from earlier work.
mu opioid receptors, sequence (P35372 whole entry): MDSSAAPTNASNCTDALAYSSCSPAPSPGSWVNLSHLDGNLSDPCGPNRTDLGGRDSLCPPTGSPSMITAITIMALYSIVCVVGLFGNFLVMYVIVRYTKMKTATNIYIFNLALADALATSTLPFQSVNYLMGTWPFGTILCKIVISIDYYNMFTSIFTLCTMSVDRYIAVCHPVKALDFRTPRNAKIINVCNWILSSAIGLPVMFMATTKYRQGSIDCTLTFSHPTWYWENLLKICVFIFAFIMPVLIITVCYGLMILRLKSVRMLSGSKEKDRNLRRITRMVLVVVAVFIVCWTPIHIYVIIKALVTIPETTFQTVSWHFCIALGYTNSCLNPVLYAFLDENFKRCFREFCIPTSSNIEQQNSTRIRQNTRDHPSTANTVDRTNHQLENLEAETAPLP

Consider `C[C@H]1CN(C[C@H](Cc2ccccc2)C(=O)NCC(=O)O)CCC1(C)c1cccc(O)c1` (single isomer, unassigned; (+)) [compound of formula (II), (+)-Z—NHCH2C(O)OH], for which the “overall adverse effects compared with placebo-treated group” value in data set [1] (higher dose) is “fewer overall adverse effects”. For the same molecule, in data set [1] (higher dose versus placebo), the “reduction of all other measures (first bowel movement, solid diet, ready for discharge, discharge)” value was not below 24 h and the “reduction of time to first flatus” value came to 15 h. In data set [1] (higher dose, 23% in the placebo control group (P<0.03)), the “patients experiencing post-surgical vomiting” value is on record as “none”. For the same molecule, the “patients experiencing clinically relevant post-surgical nausea” value in data set [1] (higher dose, 63% of the placebo control group (P=0.003)) is reported as “Twenty seven”. The “serious adverse side effects judged related to the compound” value in data set [1] (patients of the trial) was “No patients experienced serious adverse side effects”. In data set [1] (patients receiving systemic narcotics for post-surgical pain), the “effect on beneficial analgesic effects of systemic narcotics” value is reported as “did not reduce the beneficial analgesic effects”. Further, the solubility in water result in “Solubility in water” is reported as “low solubility in water”. For the same molecule, at mu opioid receptors, the “opioid receptor binding preference” value was “preferential binding to mu opioid receptors”.
